From US20210198277A1, “AMINE-SUBSTITUTED ARYL OR HETEROARYL COMPOUNDS” (Epizyme, Inc., priority 2016, published 2021) come the findings set out here.

Some results are limits rather than exact numbers.

This assay concerns the target T1, EHMT2 (Homo sapiens, UniProt Q96KQ7).
T1 construct: host or cells: MDA-MB-231
T1 sequence (Q96KQ7 1-1210): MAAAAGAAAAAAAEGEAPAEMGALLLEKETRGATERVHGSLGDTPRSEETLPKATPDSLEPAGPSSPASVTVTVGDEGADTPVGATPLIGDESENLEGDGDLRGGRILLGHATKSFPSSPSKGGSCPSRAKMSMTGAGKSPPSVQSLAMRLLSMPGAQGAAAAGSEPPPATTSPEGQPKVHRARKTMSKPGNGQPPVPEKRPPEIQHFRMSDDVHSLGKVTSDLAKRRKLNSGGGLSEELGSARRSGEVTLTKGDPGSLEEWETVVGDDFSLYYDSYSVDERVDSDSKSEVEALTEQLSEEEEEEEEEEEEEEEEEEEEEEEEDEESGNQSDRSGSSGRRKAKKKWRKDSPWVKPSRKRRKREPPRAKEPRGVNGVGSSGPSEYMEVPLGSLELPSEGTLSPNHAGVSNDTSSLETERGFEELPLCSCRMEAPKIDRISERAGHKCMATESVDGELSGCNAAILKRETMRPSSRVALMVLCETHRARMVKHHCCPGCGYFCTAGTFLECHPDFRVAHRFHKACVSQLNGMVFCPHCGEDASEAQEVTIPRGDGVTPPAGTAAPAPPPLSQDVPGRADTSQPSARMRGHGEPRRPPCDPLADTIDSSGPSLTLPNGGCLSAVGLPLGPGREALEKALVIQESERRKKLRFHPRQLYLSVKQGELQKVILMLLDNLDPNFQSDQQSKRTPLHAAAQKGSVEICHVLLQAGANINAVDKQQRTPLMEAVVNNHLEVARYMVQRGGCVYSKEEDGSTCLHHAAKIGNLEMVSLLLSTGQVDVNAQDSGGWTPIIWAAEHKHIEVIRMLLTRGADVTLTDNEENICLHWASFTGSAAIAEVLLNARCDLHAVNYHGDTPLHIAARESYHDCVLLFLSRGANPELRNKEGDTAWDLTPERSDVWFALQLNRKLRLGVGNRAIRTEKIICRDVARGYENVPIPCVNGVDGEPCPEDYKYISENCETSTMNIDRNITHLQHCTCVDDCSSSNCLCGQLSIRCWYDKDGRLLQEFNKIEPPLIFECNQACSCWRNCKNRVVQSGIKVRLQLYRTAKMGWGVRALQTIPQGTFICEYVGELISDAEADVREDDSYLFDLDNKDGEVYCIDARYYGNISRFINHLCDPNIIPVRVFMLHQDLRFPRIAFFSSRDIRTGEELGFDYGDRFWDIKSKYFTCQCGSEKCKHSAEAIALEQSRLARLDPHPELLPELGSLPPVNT
The experiment in a line: MDA-MB-231 H3K9me2 in-cell Western assay (EHMT2 ICW). The assay is classed as cell-based. The note with it: H3K9me2 in-cell Western, MDA-MB-231 cells; read-out: EHMT2 ICW (IC50 μM). The method in brief:
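MDA-MB-231 cells (3,000/well) were exposed to compound for 30 min at room temperature and then 48 h at 37 °C, fixed with paraformaldehyde, and stained with anti-H3K9me2 (800 nm) plus DRAQ5 (700 nm). Per-well channel ratios gave percent inhibition, and IC50 came from a four-parameter fit of triplicate wells.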

One may read the IC50 as the midpoint of a concentration-inhibition curve. Take `CNc1cc(C)nc(Nc2ccc(OC)c(OC[C@@H]3CCN(C4CC4)C3)c2)n1` (single isomer, unassigned) [Compound 481]: the IC50 was < 0.1 µM.

As to `CNc1cc(C)nc(Nc2ccc(OC)c(OC[C@H]3CCN(C4CC4)C3)c2)n1` (single isomer, unassigned) [Compound 482], the IC50 was 1 to 10 µM.

As for `CNc1ccnc(Nc2ccc(OC)c(OCCOC3CC3)c2)n1` [Compound 453, N^2-(3-(2-cyclopropoxyethoxy)-4-methoxyphenyl)-N^4-methylpyrimidine-2,4-diamine], the IC50 was > 10 µM.

In the case of `CNc1cc(C)nc(Nc2ccc(OC)c(OC3CCN(C)CC3)c2)n1` [Compound 455], the IC50 was > 10 µM.

As for `CNc1cc(C)nc(Nc2ccc(OC)c(OCC3CCN(C4CCCC4)C3)c2)n1` (centres unmarked) [Compound 456, N^2-(3-((1-cyclopentylpyrrolidin-3-yl)methoxy)-4-methoxyphenyl)-N^4,6-dimethylpyrimidine-2,4-diamine], the IC50 is > 10 µM.

For the molecule `CNc1cc(C)nc(Nc2ccc(OC)c(OCC3CCN(C4CC4)C3)c2)n1` (centres unmarked) [Compound 457], the IC50 is < 0.1 µM.

In the case of `CNc1cc(C2CCCC2)nc(Nc2ccc(OC)c(OCCCN3CCCC3)c2)n1` [Compound 458, 6-cyclopentyl-N^2-(4-methoxy-3-(3-(pyrrolidin-1-yl)propoxy)phenyl)-N^4-methylpyrimidine-2,4-diamine], the IC50 fell in the range of 1 to 10 µM.

In the case of `CNc1cc(C2CCOCC2)nc(Nc2ccc(OC)c(OCCCN3CCCC3)c2)n1` [Compound 459, N^2-(4-methoxy-3-(3-(pyrrolidin-1-yl)propoxy)phenyl)-N^4-methyl-6-(tetrahydro-2H-pyran-4-yl)pyrimidine-2,4-diamine], the IC50 was > 10 µM.

`COc1cnc(Nc2nc(C)cc3[nH]ncc23)cc1OCCCN1CCCC1` [Compound 460, N-(5-methoxy-4-(3-(pyrrolidin-1-yl)propoxy)pyridine-2-yl)-6-methyl-1H-pyrazolo[4,3-c]pyridine-4-amine]: the IC50 is 0.1 to 1 µM.

For `CNc1cc(C)nc(Nc2ccc(OC)c(OCC3CCN(CCO)C3)c2)n1` (centres unmarked) [Compound 461, 2-(3-((2-methoxy-5-((4-methyl-6-(methylamino)pyrimidin-2-yl)amino)phenoxy)methyl)pyrrolidin-1-yl)ethan-1-ol], the IC50 lay in the range of 0.1 to 1 µM.

With `COc1ccc(Nc2nc(C)cc(NCC3CCOCC3)n2)cc1OCC1CCN(C2CC2)C1` (centres unmarked) [Compound 462, N^2-(3-((1-cyclopropylpyrrolidin-3-yl)methoxy)-4-methoxyphenyl)-6-methyl-N^4-((tetrahydro-2H-pyran-4-yl)methyl)pyrimidine-2,4-diamine], the IC50 was in the range of 0.1 to 1 µM.

As to `CNc1cc(C)nc(Nc2ccc(OC)c(OCCCN(C)C3CC3)c2)n1` [Compound 463, N^2-(3-(3-(cyclopropyl(methyl)amino)propoxy)-4-methoxyphenyl)-N^4,6-dimethylpyrimidine-2,4-diamine], the half-inhibitory concentration (IC50) is 0.1 to 1 µM.

Consider `COc1cnc(Nc2cc(NCC3CCOCC3)cc(C)n2)cc1OCCCN1CCCC1` [Compound 464, N^2-(5-methoxy-4-(3-(pyrrolidin-1-yl)propoxy)pyridin-2-yl)-6-methyl-N^4-((tetrahydro-2H-pyran-4-yl)methyl)pyridine-2,4-diamine], for which the IC50 lay in the range of 1 to 10 µM.

On to `CNc1cc(C)nc(Nc2ccc(OC)c(OCCCN3CC(O)C3)c2)n1` [Compound 465, 1-(3-(2-methoxy-5-((4-methyl-6-(methylamino)pyrimidin-2-yl)amino)phenoxy)propyl)azetidin-3-ol], for which the IC50 lay within 0.1 to 1 µM.

Regarding `CNc1cc(C)nc(Nc2ccc(OC)c(OC3CCN(C4CC4)CC3)c2)n1` [Compound 466, N^2-(3-((1-cyclopropylpiperidin-4-yl)oxy)-4-methoxyphenyl)-N^4,6-dimethylpyrimidine-2,4-diamine], the IC50 is > 10 µM.

As to `CNc1cc(C)nc(Nc2ccc(OC)c(OC[C@H]3C[C@@H](N(C)C)C3)c2)n1` [Compound 468], the IC50 fell in the range of 1 to 10 µM.

`CNc1cc(C)nc(Nc2ccc(OC)c(OC[C@H]3C[C@H](N(C)C)C3)c2)n1` [Compound 470]: the IC50 was > 10 µM.

Regarding `CCn1nc(Nc2nccc3[nH]ccc23)cc1COCCN1CCCC1` [Compound 471], the IC50 is > 10 µM.

For `CNc1cc(Nc2cc(OC[C@@H]3CCN(C)C3)c(OC)cn2)nc(C)n1` [Compound 473], the IC50 fell in the range of 1 to 10 µM.

Turning to `CNc1cc(C)nc(Nc2cc(OC[C@@H]3CCN(C)C3)c(OC)cn2)c1` [Compound 475], the IC50 lay within 0.1 to 1 µM.

For the molecule `CNc1ccnc(Nc2ccc(OC)c(OC[C@@H]3CN(C)C[C@@H]3C)c2)n1` [Compound 477], the IC50 was in the range of 1 to 10 µM.

Consider `CNc1ccnc(Nc2ccc(OC)c(OCc3nnc(C4CC4)[nH]3)c2)n1` [Compound 478], for which the half-inhibitory concentration (IC50) was > 10 µM.

As to `CNc1ccnc(Nc2ccc(OC)c(OCc3ncn(C4CC4)n3)c2)n1` [Compound 480], the IC50 was > 10 µM.

In the case of `CNc1cc(C(C)C)nc(Nc2ccc(OC)c(OCCCN3CCCC3)c2)n1` [Compound 483], the IC50 was in the range of 0.1 to 1 µM.

For the molecule `COc1cnc(Nc2nc(C)cc3[nH]c(C)cc23)cc1OCCCN1CCCC1` [Compound 485], the IC50 is 0.1 to 1 µM.

`COc1ccc(Nc2nc(C)cc3[nH]ccc23)cc1OCCCN1CCCC1` [Compound 486]: the IC50 is > 10 µM.

As for `CNc1cc(C)nc(Nc2ccc(OC)c([C@H]3C[C@@H]3CN(C)C)c2)n1` [Compound 487], the IC50 lay in the range of 1 to 10 µM.

Turning to `CNc1cc(C)nc(Nc2ccc(OC)c([C@H]3C[C@H]3CN(C)C)c2)n1` [Compound 488], the half-inhibitory concentration (IC50) was 0.1 to 1 µM.

On to `CNc1cc(C)nc(Nc2ccc(OC)c(OC(C#N)CCN3CCCC3)c2)n1` (centres unmarked) [Compound 489], for which the IC50 is 1 to 10 µM.

Turning to `CNc1cc(C)nc(Nc2ccc(OC)c(OCCCN3CCC3)c2)n1` [Compound 490], the IC50 is < 0.1 µM.

For the molecule `CNc1cc(C)nc(Nc2ccc(OC)c(OC[C@@H]3CN(C)C[C@H]3O)c2)n1` [Compound 491], the IC50 fell in the range of 1 to 10 µM.

Consider `CNc1cc(C)nc(Nc2ccc(OC)c(OC[C@@H]3CN(C)C[C@@H]3O)c2)n1` [Compound 492], for which the IC50 was in the range of 0.1 to 1 µM.

Take `COc1cnc(Nc2nc(C)cc3[nH]ccc23)cc1OCC1CCN(C2CC2)C1` (centres unmarked) [Compound 494]: the IC50 is < 0.1 µM.

`COc1cnc(Nc2nc(C)cc3[nH]ccc23)cc1OC[C@H]1CCN(C2CC2)C1` [Compound 494a]: the 50% inhibitory concentration (IC50) was in the range of 0.1 to 1 µM.

For the molecule `COc1cnc(Nc2nc(C)cc3[nH]ccc23)cc1OC[C@@H]1CCN(C2CC2)C1` [Compound 495], the IC50 is 0.1 to 1 µM.

In the case of `CNc1cc(C)nc(Nc2cc(Cl)c(OC)c(OCCCN3CCCC3)c2)n1` [Compound 496], the IC50 lay within 1 to 10 µM.

Turning to `CCc1ccc(Nc2nc(C)cc(NC)n2)cc1OCCCN1CCCC1` [Compound 497], the IC50 is 0.1 to 1 µM.

Regarding `CNc1cc(C)nc(Nc2ccc(OC)c(OCCCN3CCC4(CC4)C3)c2)n1` [Compound 498, N^2-(3-(3-(5-azaspiro[2.4]heptan-5-yl)propoxy)-4-methoxyphenyl)-N^4,6-dimethylpyrimidine-2,4-diamine], the 50% inhibitory concentration (IC50) was 1 to 10 µM.

`CNc1cc(C)nc(Nc2ccc(OC)c(OCCCCN(C)C)c2)n1` [Compound 502]: the IC50 lay in the range of 1 to 10 µM.

For the molecule `CNc1cc(C)nc(Nc2ccc(OC)c(OCCC3CCN(C)C3)c2)n1` (centres unmarked) [Compound 503], the half-maximal inhibitory concentration (IC50) was in the range of 1 to 10 µM.

As to `CNc1cc(C)nc(Nc2ccc(OC)c(OCCCN3CCCC3C)c2)n1` (centres unmarked) [Compound 504, N^2-(4-methoxy-3-(3-(2-methylpyrrolidin-1-yl)propoxy)phenyl)-N^4,6-dimethylpyrimidine-2,4-diamine], the IC50 lay in the range of 0.1 to 1 µM.

Consider `CNc1cc(C)nc(Nc2ccc(OC)c(OCCCN3CC4CC4C3)c2)n1` (centres unmarked) [Compound 506], for which the IC50 lay within 0.1 to 1 µM.

With `COc1cnc(Nc2nccc3[nH]ccc23)cc1OCCCN1CC2CC2C1` (centres unmarked) [Compound 507], the IC50 was 0.1 to 1 µM.

Consider `CNc1cc(C)nc(Nc2ccc(OC)c(OCCC3CN(C)C3)c2)n1` [Compound 508], for which the IC50 is > 10 µM.

In the case of `CNc1cc(Nc2cc(OCCCN3CC4CC4C3)c(OC)cn2)nc(C)c1F` (centres unmarked) [Compound 509], the IC50 lay in the range of 0.1 to 1 µM.

Take `CNc1cc(C)nc(Nc2ccc(OC)c(OCC3CN(C4CC4)C3)c2)n1` [Compound 510]: the IC50 lay in the range of 0.1 to 1 µM.

For `CNc1cc(C)nc(Nc2cnc(OC)c(OC[C@@H]3CCN(C4CC4)C3)c2)n1` [Compound 512], the IC50 was < 0.1 µM.
